Like-named read-outs stand apart in the source and are kept apart here. Each block holds one compound with its values, some of them ahead of it. *1 amine or outer side, *2 acyl side, *3 side chain or, on linkers, in order; H or OH if unused. Where a SMILES comes first, the peptide text is derived from it. Bridges are numbered along the chain shown (N, C = ends). [ ]: non-standard residue; d: D form. The star is where a group is joined. hPhe(3-Cl-4-CF3) = N[C@@H](CCc1ccc(C(F)(F)F)c(Cl)c1)C(=O)O; NPrPhe(4-CF3) = CCCN[C@@H](Cc1ccc(C(F)(F)F)cc1)C(=O)O; X10 = C=CCN([C@@H](Cc1ccc(C)cc1)C(=O)[*:2])[*:1]; NMePhe(4-Me) = CN[C@@H](Cc1ccc(C)cc1)C(=O)O; NMeGly(cPent) = CN[C@H](C(=O)O)C1CCCC1; Hyp = O=C(O)[C@@H]1C[C@@H](O)CN1; NMeD = CN[C@@H](CC(=O)O)C(=O)O; NMeL = CN[C@@H](CC(C)C)C(=O)O; Morpholide = C1CN(*)CCO1; Ac5c = NC1(C(=O)O)CCCC1; NPrGly = CCCNCC(=O)O; NEtG = CCNCC(=O)O; Sar = CNCC(=O)O
Columns and labels:
[1] = molecular target: GDP-bound KRAS wild-type protein (Homo sapiens, UniProt P01116); test: Binding to KRAS by surface plasmon resonance (SPR), Single Cycle Kinetics; conditions: GDP-bound KRAS wild-type protein, read-out: KRAS KD
Chain of GDP-bound KRAS wild-type protein (P01116 whole entry): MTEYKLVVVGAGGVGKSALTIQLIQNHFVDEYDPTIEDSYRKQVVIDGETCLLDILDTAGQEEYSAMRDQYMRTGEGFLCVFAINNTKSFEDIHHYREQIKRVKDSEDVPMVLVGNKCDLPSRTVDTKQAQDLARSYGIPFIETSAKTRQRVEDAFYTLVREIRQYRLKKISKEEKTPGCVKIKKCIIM

[2] = molecular target: GDP-bound NRAS wild-type protein (Homo sapiens, UniProt P01111); test: Binding to NRAS by surface plasmon resonance (SPR), Single Cycle Kinetics; conditions: for NRAS/KRAS (ratio of KD value for NRAS to KD value for KRAS): SPR, GDP-bound NRAS wild-type protein vs GDP-bound KRAS wild-type protein
Chain of GDP-bound NRAS wild-type protein (P01111 whole entry): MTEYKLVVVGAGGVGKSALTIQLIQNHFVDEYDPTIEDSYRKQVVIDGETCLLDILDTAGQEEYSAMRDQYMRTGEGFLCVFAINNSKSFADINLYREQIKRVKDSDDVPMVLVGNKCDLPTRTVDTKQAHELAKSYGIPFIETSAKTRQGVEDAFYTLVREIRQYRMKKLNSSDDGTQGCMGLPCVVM

[3] = molecular target: GDP-bound HRAS wild-type protein (Homo sapiens, UniProt P01112); test: Binding to HRAS by surface plasmon resonance (SPR), Single Cycle Kinetics; conditions: for HRAS/KRAS (ratio of KD value for HRAS to KD value for KRAS): SPR, GDP-bound HRAS wild-type protein vs GDP-bound KRAS wild-type protein
Chain of GDP-bound HRAS wild-type protein (P01112 whole entry): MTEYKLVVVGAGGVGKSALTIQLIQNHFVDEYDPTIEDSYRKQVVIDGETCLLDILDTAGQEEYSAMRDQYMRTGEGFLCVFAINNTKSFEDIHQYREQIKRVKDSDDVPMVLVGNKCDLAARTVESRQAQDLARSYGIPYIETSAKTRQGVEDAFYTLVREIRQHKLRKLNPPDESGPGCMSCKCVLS

[4] = SPR Single Cycle Kinetics, 1:1 binding model

SMILES: CCCN1CC(=O)N(C)[C@@H](Cc2ccc(C)cc2)C(=O)N(C)CC(=O)N[C@@H](CCc2ccc(C(F)(F)F)c(Cl)c2)C(=O)N2CCC[C@H]2C(=O)NC2(CCCC2)C(=O)N(C)[C@@H](C2CCCC2)C(=O)N(C)[C@H](C(=O)N2CCOCC2)CC(=O)N(C)[C@@H](CC(C)C)C(=O)N[C@@H]([C@@H](C)CC)C(=O)N(C)CC1=O [PP0020] ([NMeL]I[Sar][NPrGly][NMePhe(4-Me)][Sar][hPhe(3-Cl-4-CF3)]P[Ac5c][NMeGly(cPent)][NMeD]-Morpholide; lactam N-11)
Kd [1, 4]: 770 pM
NRAS/KRAS (ratio of KD value for NRAS to KD value for KRAS) [2]: C (A compound having a KD ratio of 0.1 or more and less than 3 is denoted as C)
HRAS/KRAS (ratio of KD value for HRAS to KD value for KRAS) [3]: C (A compound having a KD ratio of 0.1 or more and less than 3 is denoted as C)

SMILES: C=CCN1C(=O)CN(C)C(=O)CN(C)C(=O)[C@H]([C@@H](C)CC)NC(=O)[C@H](CC(C)C)N(C)C(=O)C[C@@H](C(=O)N2CCOCC2)N(C)C(=O)[C@H](C2CCCC2)N(C)C(=O)C2(CCCC2)NC(=O)[C@@H]2CCCN2C(=O)[C@H](CCc2ccc(C(F)(F)F)c(Cl)c2)NC(=O)CN(C)C(=O)[C@@H]1Cc1ccc(C)cc1 [PP0100] ([NMeL]I[Sar][Sar][X10][Sar][hPhe(3-Cl-4-CF3)]P[Ac5c][NMeGly(cPent)][NMeD]-Morpholide; lactam N-11)
Kd [1, 4]: 190 pM
NRAS/KRAS (ratio of KD value for NRAS to KD value for KRAS) [2]: B (a compound having 3 or more and less than 10 is denoted as B)
HRAS/KRAS (ratio of KD value for HRAS to KD value for KRAS) [3]: C (A compound having a KD ratio of 0.1 or more and less than 3 is denoted as C)

SMILES: CCCN(C)C(=O)[C@@H]1CC(=O)N(C)[C@@H](C2CC2)C(=O)N[C@@H]([C@@H](C)CC)C(=O)N(C)CC(=O)N(C)[C@H]2C/C=C\CCN(C2=O)[C@@H](Cc2ccc(C(F)(F)F)cc2)C(=O)N(C)CC(=O)N[C@@H](CCc2ccc(C(F)(F)F)c(OC)c2)C(=O)N2C[C@@H](C)C[C@H]2C(=O)NC2(CCC2)C(=O)N(C)[C@@H](C2CCCC2)C(=O)N1C [PP2070]
Kd ([1]; SPR, Single Cycle Kinetics): 110 pM
NRAS/KRAS (ratio of KD value for NRAS to KD value for KRAS) [2]: A (a compound having 10 or more and less than 20 is denoted as A)
HRAS/KRAS (ratio of KD value for HRAS to KD value for KRAS) [3]: A (a compound having 10 or more and less than 20 is denoted as A)

SMILES: CCCN1C(=O)CN(C)C(=O)CN(C)C(=O)[C@H]([C@@H](C)CC)NC(=O)[C@H](CC(C)C)N(C)C(=O)C[C@@H](C(=O)N(C)C)NC(=O)[C@H](C2CCCC2)N(C)C(=O)C2(CCCC2)NC(=O)[C@@H]2C[C@@H](OCC)CN2C(=O)[C@H](CCc2ccc(C(F)(F)F)c(Cl)c2)NC(=O)CN(C)C(=O)[C@@H]1Cc1ccc(C(F)(F)F)cc1 [PP0359] ([NMeL]I[Sar][Sar][NPrPhe(4-CF3)][Sar][hPhe(3-Cl-4-CF3)][Hyp](Et)[Ac5c][NMeGly(cPent)]D-NMe2; lactam N-11)
Kd [1, 4]: 140 pM
NRAS/KRAS (ratio of KD value for NRAS to KD value for KRAS) [2]: B (a compound having 3 or more and less than 10 is denoted as B)
HRAS/KRAS (ratio of KD value for HRAS to KD value for KRAS) [3]: B (a compound having 3 or more and less than 10 is denoted as B)

SMILES: CCO[C@@H]1C[C@H]2C(=O)NC3(CCC3)C(=O)N(C)[C@@H](C3CCCC3)C(=O)N(C)[C@H](C(=O)N3CCOCC3)CC(=O)N(C)[C@@H](CC)C(=O)N[C@@H]([C@@H](C)CC)C(=O)N(C)CC(=O)N(C)[C@H]3C/C=C\CCN(C3=O)[C@@H](Cc3ccc(C(F)(F)F)cc3)C(=O)N(C)CC(=O)N[C@@H](CCc3cc(F)c(C(F)(F)F)c(F)c3)C(=O)N2C1 [PP1092]
Kd ([1]; SPR, Single Cycle Kinetics): 150 pM
NRAS/KRAS (ratio of KD value for NRAS to KD value for KRAS) [2]: A (a compound having 10 or more and less than 20 is denoted as A)
HRAS/KRAS (ratio of KD value for HRAS to KD value for KRAS) [3]: A (a compound having 10 or more and less than 20 is denoted as A)

SMILES: CCCN1C(=O)CN(C)C(=O)CN(CC)C(=O)[C@H]([C@@H](C)CC)NC(=O)[C@H](CC(C)C)N(C)C(=O)C[C@@H](C(=O)N2CCOCC2)N(C)C(=O)[C@H](C2CCCC2)N(C)C(=O)C2(CCCC2)NC(=O)CN(C)C(=O)[C@H](CCc2ccc(C(F)(F)F)c(Cl)c2)NC(=O)CN(C)C(=O)[C@@H]1Cc1ccc(C(F)(F)F)cc1 [PP0300] ([NMeL]I[NEtG][Sar][NPrPhe(4-CF3)][Sar][hPhe(3-Cl-4-CF3)][Sar][Ac5c][NMeGly(cPent)][NMeD]-Morpholide; lactam N-11)
Kd [1, 4]: 1400 pM
NRAS/KRAS (ratio of KD value for NRAS to KD value for KRAS) [2]: B (a compound having 3 or more and less than 10 is denoted as B)
HRAS/KRAS (ratio of KD value for HRAS to KD value for KRAS) [3]: C (A compound having a KD ratio of 0.1 or more and less than 3 is denoted as C)

SMILES: CCO[C@@H]1C[C@H]2C(=O)NC3(CCC3)C(=O)N(C)[C@@H](C3CCCC3)C(=O)N[C@H](C)CC(=O)N(C)[C@@H](CC)C(=O)N[C@@H]([C@@H](C)CC)C(=O)N(C)CC(=O)N(C)[C@H]3C/C=C\CCN(C3=O)[C@@H](Cc3ccc(C(F)(F)F)cc3)C(=O)N(C)CC(=O)N[C@@H](CCc3cc(F)c(C(F)(F)F)c(F)c3)C(=O)N2C1 [PP1098]
Kd ([1]; SPR, Single Cycle Kinetics): 680 pM
NRAS/KRAS (ratio of KD value for NRAS to KD value for KRAS) [2]: B (a compound having 3 or more and less than 10 is denoted as B)
HRAS/KRAS (ratio of KD value for HRAS to KD value for KRAS) [3]: B (a compound having 3 or more and less than 10 is denoted as B)

SMILES: CCCN1C(=O)CN(C)C(=O)CN(C)C(=O)[C@H]([C@@H](C)CC)NC(=O)[C@H](CC(C)C)N(C)C(=O)C[C@@H](C(=O)N2CCOCC2)N(C)C(=O)[C@H](C2CCCC2)N(C)C(=O)[C@@H](C)NC(=O)[C@@H]2CCCN2C(=O)[C@H](CCc2ccc(C(F)(F)F)c(Cl)c2)NC(=O)CN(C)C(=O)[C@@H]1Cc1ccc(C(F)(F)F)cc1 [PP0150] ([NMeL]I[Sar][Sar][NPrPhe(4-CF3)][Sar][hPhe(3-Cl-4-CF3)]P[dA][NMeGly(cPent)][NMeD]-Morpholide; lactam N-11)
Kd [1, 4]: 1700 pM
NRAS/KRAS (ratio of KD value for NRAS to KD value for KRAS) [2]: B (a compound having 3 or more and less than 10 is denoted as B)
HRAS/KRAS (ratio of KD value for HRAS to KD value for KRAS) [3]: C (A compound having a KD ratio of 0.1 or more and less than 3 is denoted as C)

Continued, in another order:

Kd ([1]; SPR, Single Cycle Kinetics): 240 pM
SMILES: CCO[C@@H]1C[C@H]2C(=O)NC3(CCCC3)C(=O)N(C)[C@@H](C3CCCC3)C(=O)N(C)[C@H](C)CC(=O)N(C)[C@@H](CC(C)C)C(=O)N[C@@H]([C@@H](C)CC)C(=O)N(C)CC(=O)N(C)[C@H]3C/C=C\CCN(C3=O)[C@@H](Cc3ccc(C(F)(F)F)cc3)C(=O)N(C)CC(=O)N[C@@H](CCc3cc(F)c(C(F)(F)F)c(F)c3)C(=O)N2C1 [PP1096]
NRAS/KRAS (ratio of KD value for NRAS to KD value for KRAS) [2]: B (a compound having 3 or more and less than 10 is denoted as B)
HRAS/KRAS (ratio of KD value for HRAS to KD value for KRAS) [3]: B (a compound having 3 or more and less than 10 is denoted as B)

Kd [1, 4]: 1500 pM
SMILES: CCC[C@H]1C(=O)N[C@@H]([C@@H](C)CC)C(=O)N(C)CC(=O)N(C)[C@H]2C/C=C\CCN(C2=O)[C@@H](Cc2ccc(C(F)(F)F)cc2)C(=O)N(C)CC(=O)N[C@@H](CCc2cc(F)c(C(F)F)c(F)c2)C(=O)N2C[C@H](OCC)C[C@H]2C(=O)NC2(CC(C)(C)C2)C(=O)N(C)[C@@H](C(CC)CC)C(=O)N(C)[C@H](C(=O)N(C)C)CC(=O)N1C [PP2781]
NRAS/KRAS (ratio of KD value with respect to GDP-bound NRAS wild-type protein to KD value with respect to KRAS) ([2]; SPR KD ratio NRAS/KRAS, class symbols): AA (a compound having 20 or more is denoted as AA)
HRAS/KRAS (ratio of KD value with respect to GDP-bound HRAS wild-type protein to KD value with respect to KRAS) ([3]; SPR KD ratio HRAS/KRAS, class symbols): A (a compound having 10 or more and less than 20 is denoted as A)

Kd ([1]; SPR, Single Cycle Kinetics, 1:1 binding model): 57 pM
SMILES: CCO[C@@H]1C[C@H]2C(=O)NC3(CCC3)C(=O)N(C)[C@@H](C3CCCC3)C(=O)N(C)[C@H](C(=O)N(C)CC)CC(=O)N(C)[C@@H](C)C(=O)N[C@@H]([C@@H](C)CC)C(=O)N(C)CC(=O)N(C)[C@H]3C/C=C\CCN(C3=O)[C@@H](Cc3ccc(C(F)(F)F)cc3)C(=O)N(C)CC(=O)N[C@@H](CCc3cc(F)c(C(F)(F)F)c(F)c3)C(=O)N2C1 [PP1302, (2S,8S,12R,14S,20S,23S,27S,30S,36S,38Z)-20-cyclopentyl-8-[2-[3,5-difluoro-4-(trifluoromethyl)phenyl]ethyl]-12-ethoxy-N-ethyl-N,4,19,22,26,27,32,35-octamethyl-30-[(1S)-1-methylpropyl]-3,6,9,15,18,21,25,28,31,34,42-undecaoxo-2-[[4-(trifluoromethyl)phenyl]methyl]spiro[1,4,7,10,16,19,22,26,29,32,35-undecazatricyclo[34.5.1.0^10,14]dotetracont-38-ene-17,1′-cyclobutane]-23-carboxamide]
NRAS/KRAS (ratio of KD value for NRAS to KD value for KRAS) ([2]; KD ratio class): A (a compound having 10 or more and less than 20 is denoted as A)
HRAS/KRAS (ratio of KD value for HRAS to KD value for KRAS) ([3]; KD ratio class): A (a compound having 10 or more and less than 20 is denoted as A)

Kd ([1]; SPR, Single Cycle Kinetics): 710 pM
SMILES: CCO[C@@H]1C[C@H]2C(=O)NC3(CC(C)(C)C3)C(=O)N(C)[C@@H](C(CC)CC)C(=O)N(C)[C@H](C(=O)N(C)C)CC(=O)N(C)[C@@H](CC(C)C)C(=O)N[C@@H]([C@@H](C)CC)C(=O)N(C)CC(=O)N(C)[C@H]3C/C=C\CCN(C3=O)[C@@H](Cc3ccc(C)cc3)C(=O)N(C)CC(=O)N[C@@H](CCc3ccc(Cl)c(Cl)c3)C(=O)N2C1 [PP2185]
NRAS/KRAS (ratio of KD value for NRAS to KD value for KRAS) [2]: AA (a compound having 20 or more is denoted as AA)
HRAS/KRAS (ratio of KD value for HRAS to KD value for KRAS) [3]: A (a compound having 10 or more and less than 20 is denoted as A)

From patent US20240158446A1, “CYCLIC COMPOUND HAVING SELECTIVE INHIBITORY ACTION ON KRAS OVER HRAS AND NRAS” (CHUGAI SEIYAKU KABUSHIKI KAISHA, priority 2021, published 2024)
